Measurements reported in patent EP4635500A1, “THERAPEUTIC AGENT FOR BACTERIAL INFECTION” (Sumitomo Pharma Co., Ltd., priority 2022, dated 2024).
In brackets after ≈: the same amount, converted by molar mass. Like-named read-outs stand apart in the source and are kept apart here.

Columns and labels:
[1] = system: Enterobacterales; experiment: MIC, broth microdilution, CDC/FDA Antibiotic Resistance Isolate Bank (Example 7, Tables 8, 11, 12); assay type: cell-based; settings: for MIC50: carbapenemase-producing Enterobacterales, read-out: MIC50
[2] = system: A. baumannii; experiment: MIC, broth microdilution, CDC/FDA Antibiotic Resistance Isolate Bank (Example 7, Tables 9, 13, 14); assay type: cell-based, Acinetobacter baumannii; settings: for MIC: Acinetobacter baumannii, read-out: MIC

CC(C)(O/N=C(\C(=O)N[C@@H]1C(=O)N2C(C(=O)[O-])=C(C[N+]3(CCNC(=O)c4ccc(O)c(O)c4Cl)CCCC3)CS[C@H]12)c1csc(N)n1)C(=O)O [Cefiderocol, cefiderocol]
MIC ([1]; Klebsiella pneumoniae, KUB No. 5643, AR Bank # 146, read-out: MIC): 0.25 µg/mL (≈ 0.332 µM)
MIC ([1]; Klebsiella pneumoniae, KUB No. 5645, AR Bank # 148, read-out: MIC): 0.5 µg/mL (≈ 0.665 µM)
MIC ([1]; Klebsiella pneumoniae, KUB No. 5649, AR Bank # 152, read-out: MIC): 0.25 µg/mL (≈ 0.332 µM)
MIC ([1]; Klebsiella pneumoniae, KUB No. 5650, AR Bank # 153, read-out: MIC): 1 µg/mL (≈ 1.33 µM)
MIC ([1]; Klebsiella pneumoniae, KUB No. 5655, AR Bank # 158, read-out: MIC): 0.5 µg/mL (≈ 0.665 µM)
MIC ([1]; Klebsiella pneumoniae, KUB No. 5657, AR Bank # 160, read-out: MIC): 0.25 µg/mL (≈ 0.332 µM)
MIC ([1]; Klebsiella pneumoniae, KUB No. 5757, AR Bank # 361, read-out: MIC): 1 µg/mL (≈ 1.33 µM)
MIC ([1]; Klebsiella pneumoniae, KUB No. 5759, AR Bank # 363, read-out: MIC): 0.25 µg/mL (≈ 0.332 µM)
MIC ([1]; Klebsiella pneumoniae, KUB No. 5760, AR Bank # 364, read-out: MIC): 2 µg/mL (≈ 2.66 µM)
MIC ([1]; Klebsiella pneumoniae, KUB No. 5772, AR Bank # 376, read-out: MIC): 1 µg/mL (≈ 1.33 µM)
MIC ([1]; Klebsiella pneumoniae, Klebsiella pneumoniae KUB No. 5784, AR Bank #438, read-out: MIC): 0.5 µg/mL (≈ 0.665 µM)
MIC ([1]; Klebsiella pneumoniae, Klebsiella pneumoniae KUB No. 5797, AR Bank #453, read-out: MIC): 0.25 µg/mL (≈ 0.332 µM)
MIC ([1]; Klebsiella pneumoniae, Klebsiella pneumoniae KUB No. 5809, AR Bank #504, read-out: MIC): 0.25 µg/mL (≈ 0.332 µM)
MIC ([1]; Klebsiella pneumoniae, Klebsiella pneumoniae KUB No. 5810, AR Bank #505, read-out: MIC): 0.5 µg/mL (≈ 0.665 µM)
MIC ([1]; Klebsiella pneumoniae, Klebsiella pneumoniae KUB No. 5811, AR Bank #506, read-out: MIC): 2 µg/mL (≈ 2.66 µM)
MIC ([1]; Klebsiella pneumoniae, Klebsiella pneumoniae KUB No. 5812, AR Bank #507, read-out: MIC): 2 µg/mL (≈ 2.66 µM)
MIC ([1]; Klebsiella pneumoniae, Klebsiella pneumoniae KUB No. 5827, AR Bank #522, read-out: MIC): 2 µg/mL (≈ 2.66 µM)
MIC ([1]; Klebsiella pneumoniae, Klebsiella pneumoniae KUB No. 5828, AR Bank #523, read-out: MIC): 1 µg/mL (≈ 1.33 µM)
MIC ([1]; Klebsiella pneumoniae, Klebsiella pneumoniae KUB No. 5829, AR Bank #524, read-out: MIC): 0.5 µg/mL (≈ 0.665 µM)
MIC ([1]; Klebsiella pneumoniae, Klebsiella pneumoniae KUB No. 5830, AR Bank #525, read-out: MIC): 2 µg/mL (≈ 2.66 µM)
MIC ([1]; Kluyvera ascorbata, KUB No. 5641, AR Bank # 144, read-out: MIC): ≤ 0.06 µg/mL
MIC ([1]; Morganella morganii, KUB No. 5630, AR Bank # 133, read-out: MIC): ≤ 0.06 µg/mL
MIC ([1]; Proteus mirabilis, KUB No. 5556, AR Bank# 59, read-out: MIC): 0.25 µg/mL (≈ 0.332 µM)
MIC ([1]; Proteus mirabilis, KUB No. 5652, AR Bank # 155, read-out: MIC): ≤ 0.06 µg/mL
MIC ([1]; Proteus mirabilis, KUB No. 5653, AR Bank # 156, read-out: MIC): < 0.06 µg/mL
MIC ([1]; Proteus mirabilis, KUB No. 5656, AR Bank # 159, read-out: MIC): 0.5 µg/mL (≈ 0.665 µM)
MIC ([1]; Proteus mirabilis, KUB No. 5773, AR Bank # 377, read-out: MIC): ≤ 0.06 µg/mL
MIC ([1]; Proteus mirabilis, KUB No. 5775, AR Bank # 379, read-out: MIC): 2 µg/mL (≈ 2.66 µM)
MIC ([1]; Providencia rettgeri, KUB No. 5579, AR Bank # 82, read-out: MIC): ≤ 0.06 µg/mL
MIC ([1]; Salmonella enterica, Salmonella Senftenberg, KUB No. 5624, AR Bank # 127, read-out: MIC): 1 µg/mL (≈ 1.33 µM)
MIC ([1]; Serratia marcescens, KUB No. 5588, AR Bank # 91, read-out: MIC): ≤ 0.06 µg/mL
MIC ([1]; Serratia marcescens, KUB No. 5596, AR Bank # 99, read-out: MIC): 0.25 µg/mL (≈ 0.332 µM)
MIC ([1]; Serratia marcescens, KUB No. 5618, AR Bank # 121, read-out: MIC): 0.12 µg/mL (≈ 0.16 µM)
MIC ([1]; Serratia marcescens, KUB No. 5619, AR Bank # 122, read-out: MIC): 0.12 µg/mL (≈ 0.16 µM)
MIC ([1]; Serratia marcescens, KUB No. 5620, AR Bank # 123, read-out: MIC): < 0.06 µg/mL
MIC ([1]; Serratia marcescens, KUB No. 5621, AR Bank # 124): ≤0.0 µg/mL
MIC ([1]; Serratia marcescens, KUB No. 5627, AR Bank # 130, read-out: MIC): 0.12 µg/mL (≈ 0.16 µM)
MIC ([1]; Serratia marcescens, KUB No. 5628, AR Bank # 131, read-out: MIC): 50.1 µg/mL (≈ 66.5 µM)
MIC ([1]; Serratia marcescens, Serratia marcescens KUB No. 5822, AR Bank #517, read-out: MIC): 2 µg/mL (≈ 2.66 µM)
MIC ([1]; Serratia marcescens, Serratia marcescens KUB No. 5826, AR Bank #521, read-out: MIC): 0.5 µg/mL (≈ 0.665 µM)
MIC50 ([1]; Metallo-β-lactamase (N = 47)): 1 µg/mL (≈ 1.33 µM)
MIC50 ([1]; Serine carbapenemase (N=61)): 0.25 µg/mL (≈ 0.332 µM)
MICrange ([2]; 55 isolates of A. baumannii): ≤0.06 to 16 µg/mL
MIC ([2]; A. baumannii KUB No. 5567, AR Bank #70, OXA-58, OXA-100): ≤ 0.06 µg/mL
MIC ([2]; A. baumannii KUB No. 5575, AR Bank #78, OXA-71): 4 µg/mL (≈ 5.32 µM)
MIC ([2]; A. baumannii KUB No. 5580, AR Bank #83, OXA-23, OXA-69, NDM-1): 16 µg/mL (≈ 21.3 µM)
MIC ([2]; A. baumannii KUB No. 5585, AR Bank #88, OXA-64, NDM-1): 2 µg/mL (≈ 2.66 µM)
MIC ([2]; A. baumannii KUB No. 5598, AR Bank #101, OXA-24, OXA-65): 0.5 µg/mL (≈ 0.665 µM)
MIC ([2]; A. baumannii KUB No. 5599, AR Bank #102, OXA-66): 0.12 µg/mL (≈ 0.16 µM)
MIC ([2]; A. baumannii KUB No. 5706, AR Bank #273, OXA-23, OXA-66): 0.12 µg/mL (≈ 0.16 µM)
MIC ([2]; A. baumannii KUB No. 5707, AR Bank #274, OXA-66, OXA-72): 0.12 µg/mL (≈ 0.16 µM)
MIC ([2]; A. baumannii KUB No. 5708, AR Bank #275, OXA-23, OXA-66): 0.5 µg/mL (≈ 0.665 µM)
MIC ([2]; A. baumannii KUB No. 5709, AR Bank #276, no carbapenemase genes (-)): 8 µg/mL (≈ 10.6 µM)
